Assays:
Test in all cases: relative viability (nuclei count vs DMSO), 5 days (fraction); higher = more cells survive
AZD6482 + Navitoclax = compound: Cc1cc([C@@H](C)Nc2ccccc2C(=O)O)c2nc(N3CCOCC3)cc(=O)n2c1 [AZD6482] + CC1(C)CCC(c2ccc(Cl)cc2)=C(CN2CCN(c3ccc(C(=O)NS(=O)(=O)c4ccc(N[C@H](CCN5CCOCC5)CSc5ccccc5)c(S(=O)(=O)C(F)(F)F)c4)cc3)CC2)C1 [Navitoclax] (partner 0.5 µM)
Summary of the method: (§1)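 For relative viability, nuclei counts in treated wells were divided by those in vehicle wells. Lung cancer cell lines had been pin-tool dosed in 1536-well plates the day after seeding and cultured for 5 days, then fixed and stained in one step (final 0.05% Triton X-100, 1% formaldehyde, 1 ug/ml Hoechst) and imaged at 4×. Doses were one drug alone or a fixed anchor-drug dose plus five library-drug doses (not always all listed) in √10 steps, and values are duplicate-plate medians.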

AZD6482 + Luminespib = compound: Cc1cc([C@@H](C)Nc2ccccc2C(=O)O)c2nc(N3CCOCC3)cc(=O)n2c1 [AZD6482] + CCNC(=O)c1noc(-c2cc(C(C)C)c(O)cc2O)c1-c1ccc(CN2CCOCC2)cc1 [Luminespib] (partner 0.01 µM)
Summary of the method: as §1

AZD6482 + Dasatinib = compound: Cc1cc([C@@H](C)Nc2ccccc2C(=O)O)c2nc(N3CCOCC3)cc(=O)n2c1 [AZD6482] + Cc1nc(Nc2ncc(C(=O)Nc3c(C)cccc3Cl)s2)cc(N2CCN(CCO)CC2)n1 [Dasatinib] (partner 0.075 µM)
Summary of the method: as §1

AZD6482 + AZD7762 = compound: Cc1cc([C@@H](C)Nc2ccccc2C(=O)O)c2nc(N3CCOCC3)cc(=O)n2c1 [AZD6482] + NC(=O)Nc1cc(-c2cccc(F)c2)sc1C(=O)N[C@H]1CCCNC1 [AZD7762] (partner 0.2 µM)
Summary of the method: as §1

Cell Line	relative viability (AZD6482 + Navitoclax; first compound 0.08 µM)	relative viability (AZD6482 + Navitoclax; first compound 0.253 µM)	relative viability (AZD6482 + Navitoclax; first compound 0.8 µM)	relative viability (AZD6482 + Navitoclax; first compound 2.53 µM)	relative viability (AZD6482 + Navitoclax; first compound 8 µM)	relative viability (AZD6482 + Luminespib; first compound 0.08 µM)	relative viability (AZD6482 + Luminespib; first compound 0.253 µM)	relative viability (AZD6482 + Luminespib; first compound 0.8 µM)	relative viability (AZD6482 + Luminespib; first compound 2.53 µM)	relative viability (AZD6482 + Luminespib; first compound 8 µM)	relative viability (AZD6482 + Dasatinib; first compound 0.08 µM)	relative viability (AZD6482 + Dasatinib; first compound 0.253 µM)	relative viability (AZD6482 + Dasatinib; first compound 0.8 µM)	relative viability (AZD6482 + Dasatinib; first compound 2.53 µM)	relative viability (AZD6482 + Dasatinib; first compound 8 µM)	relative viability (AZD6482 + AZD7762; first compound 0.08 µM)	relative viability (AZD6482 + AZD7762; first compound 0.253 µM)	relative viability (AZD6482 + AZD7762; first compound 0.8 µM)	relative viability (AZD6482 + AZD7762; first compound 8 µM)	relative viability (AZD6482 + AZD7762; first compound 2.53 µM)
LCLC-97TM1	0.59	0.257	0.38	0.211	0.211	0.77	0.803	0.66	0.327	0.282	0.87	0.711	0.869	0.611	0.486	0.344	0.157	0.442	0.299	
LK-2	0.779	0.716	0.932	0.681	0.782	0.231	0.187	0.229	0.177	0.167	0.349	0.286	0.327	0.26	0.221	0.386	0.362	0.434	0.271	0.239
LOU-NH91	0.579	0.651	0.659	0.441	0.518	0.326	0.293	0.343	0.27	0.335	0.394	0.486	0.577	0.406	0.376	0.695	0.69	0.704	0.543	0.519
LU99A	0.753	0.757	0.81	0.515	0.529	0.323	0.26	0.334	0.237	0.238	0.562	0.522	0.397	0.389	0.407	0.338	0.356	0.254	0.344	0.317
LXF-289	0.974	0.955	0.997	0.954	0.854	0.688	0.655	0.724	0.409	0.379	0.188	0.15	0.193	0.106	0.123	1.11	1.13	1.26	0.956	0.982
NCI-H23	0.828	0.696	0.785	0.578	0.568	0.235		0.249	0.207	0.201	0.746	0.952	0.511	0.572	0.368	0.317	0.223	0.236	0.219	0.201
NCI-H322M	1.24	1	1.07	0.675	0.798	0.776	0.472	0.783	0.465	0.496	0.261	0.249	0.27	0.207	0.242	0.647	0.623	0.587	0.405	0.421
NCI-H441	0.752	0.59	0.563	0.702	0.632	0.389	0.375	0.3		0.262	0.568	0.592	0.704		0.502	1.02	1.18	1.36	1.19	
NCI-H460	0.968	1.08	1.07	0.859	0.694	0.0355	0.0327	0.0426	0.0315	0.0378	0.414	0.404	0.562	0.241	0.215	0.618	0.674	0.791	0.568	0.459
NCI-H596	0.596	0.827	0.925	0.912	0.836	0.92	0.815	0.848	0.812	0.801	0.7	0.586	0.601	0.514	0.642	0.874	1.05	1.07	0.966	0.925
NCI-H647	0.949		0.929	0.555	0.806	0.167	0.121	0.147	0.193	0.146	0.133	0.152	0.153	0.0999	0.096	0.365	0.445	0.495	0.235	0.191
NCI-H727	0.469	0.455	0.421		0.235	0.245	0.348	0.786	0.292	0.345	0.401	0.41	0.41	0.266	0.395	0.684	0.596	0.596	0.578	
NCI-H838	0.984	1.08	1.05	0.622	0.623	0.246	0.355	0.265	0.193	0.332	0.24	0.248	0.257	0.218	0.28	0.936	0.902	0.934	0.759	0.78
NCI-H1355	0.551	0.697	0.711	0.588	0.61	0.53	0.556	0.702	0.422	0.52	0.479	0.496	0.766	0.492	0.456	0.642	0.755	0.745	0.65	0.681
NCI-H1395	0.831	0.822	0.803	0.542	0.733	0.541	0.601	0.514	0.376	0.482	0.348	0.346	0.357	0.29	0.369	0.393	0.393	0.44	0.411	0.405
NCI-H1703	0.902	0.865	0.822	0.338	0.422													0.333	0.149	0.131
SW 900						0.152	0.137	0.153		0.153	0.446	0.419	0.462		0.252	0.402	0.512	0.445	0.501	0.497

Reference: the supplement of paper PMC10307832
